From ChEMBL document CHEMBL3853265 (Medchemcomm, 2016)

Tests used:
[1] = Drug metabolism in dog hepatocytes; type: ADME, cell-based, Canis lupus familiaris, Hepatocyte
[2] = Toxicity in dog assessed as increase in body temperature at 10 mg/kg, po administered as single dose measured up to 3 days post dose; type: organism-based, Canis lupus familiaris; conditions: in vivo, 72 h
[3] = Drug metabolism in rat hepatocytes assessed as glucuronidation in presence of glutathione and water; type: ADME, cell-based, Hepatocyte
[4] = Toxicity in dog assessed as uncontrollable panting at 30 mg/kg, po administered as single dose; type: organism-based, Canis lupus familiaris; conditions: in vivo
[5] = Oral bioavailability in dog at 0.737 mg/kg; type: ADME, organism-based, Canis lupus familiaris; conditions: in vivo
Cytochrome P450 2C9 = Cytochrome P450 2C9 (Homo sapiens, UniProt P11712); test: Inhibition of CYP2C9 (unknown origin); type: ADME
Chain of Cytochrome P450 2C9 (P11712 whole entry): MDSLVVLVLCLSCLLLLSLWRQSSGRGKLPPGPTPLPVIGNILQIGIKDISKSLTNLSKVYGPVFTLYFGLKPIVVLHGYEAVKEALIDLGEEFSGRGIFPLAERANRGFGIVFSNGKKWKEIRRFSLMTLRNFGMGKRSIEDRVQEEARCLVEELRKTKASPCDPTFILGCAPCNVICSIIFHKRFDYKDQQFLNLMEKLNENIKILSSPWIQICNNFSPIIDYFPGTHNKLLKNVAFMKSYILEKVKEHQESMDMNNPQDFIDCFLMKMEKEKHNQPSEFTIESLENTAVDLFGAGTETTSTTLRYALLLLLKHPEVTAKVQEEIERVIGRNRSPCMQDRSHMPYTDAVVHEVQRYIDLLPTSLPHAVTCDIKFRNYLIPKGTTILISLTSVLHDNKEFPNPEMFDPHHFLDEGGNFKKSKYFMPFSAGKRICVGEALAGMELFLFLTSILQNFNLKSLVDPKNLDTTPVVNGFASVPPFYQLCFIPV

[6] = Drug metabolism in human hepatocytes assessed as monooxidation; type: ADME, cell-based, Hepatocyte
Cytochrome P450 2D6 = Cytochrome P450 2D6 (Homo sapiens, UniProt P10635); test: Inhibition of CYP2D6 (unknown origin); type: ADME
Chain of Cytochrome P450 2D6 (P10635 whole entry): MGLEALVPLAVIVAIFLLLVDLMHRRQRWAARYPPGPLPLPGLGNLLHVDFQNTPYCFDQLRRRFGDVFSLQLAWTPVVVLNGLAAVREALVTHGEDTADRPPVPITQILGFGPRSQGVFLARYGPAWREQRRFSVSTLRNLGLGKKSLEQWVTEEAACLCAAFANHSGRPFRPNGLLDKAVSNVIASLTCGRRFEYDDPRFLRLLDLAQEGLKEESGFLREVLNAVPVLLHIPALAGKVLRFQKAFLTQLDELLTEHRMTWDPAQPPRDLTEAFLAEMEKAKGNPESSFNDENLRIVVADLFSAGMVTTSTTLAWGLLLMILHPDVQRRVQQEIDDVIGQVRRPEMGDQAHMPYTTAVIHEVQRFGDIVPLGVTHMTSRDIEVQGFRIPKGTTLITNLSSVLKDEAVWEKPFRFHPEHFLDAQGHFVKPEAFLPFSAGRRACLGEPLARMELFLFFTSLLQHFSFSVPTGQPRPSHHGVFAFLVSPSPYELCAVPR

Rattus norvegicus [7] = test: Toxicity in Wistar Han rat assessed as increase in liver to body weight ratio at >= 30 mg/kg/day, po administered for 14 days; type: organism-based; conditions: in vivo, 336 h
CYP2C9 = CYP2C9 (Homo sapiens, UniProt P11712); test: Inhibition of CYP2C9 (unknown origin) at 3 uM relative to control; type: ADME
Chain of CYP2C9 (P11712 whole entry): as the sequence (P11712 whole entry) above

[8] = Plasma clearance in dog at 0.363 mg/kg, iv and 0.737 mg/kg, po; type: ADME, organism-based, Canis lupus familiaris
[9] = Volume of distribution at steady state in dog at 0.363 mg/kg, iv and 0.737 mg/kg, po; type: ADME, organism-based, Canis lupus familiaris; conditions: in vivo, read-out: Vdss
P-gp = test: Substrate activity at p-gp (unknown origin) assessed as efflux ratio of permeability; type: ADME; conditions: human, not told
[10] = Drug metabolism in rat hepatocytes assessed as glucuronidation in presence of glutathione; type: ADME, cell-based, Hepatocyte
[11] = Toxicity in dog assessed as transient panting at 10 mg/kg, po administered as single dose measured up to 30 hrs post dose; type: organism-based, Canis lupus familiaris; conditions: in vivo
Rattus norvegicus [12] = test: Toxicity in Wistar Han rat assessed as increase in liver weight at >= 30 mg/kg/day, po administered for 14 days; type: organism-based; conditions: in vivo, 336 h
[13] = Drug metabolism in human hepatocytes assessed as monooxidation and glucuronidation; type: ADME, cell-based, Hepatocyte
Rattus norvegicus [14] = test: Toxicity in Wistar Han rat assessed as centrilobular hepatocellular hypertrophy at 100 mg/kg/day, po administered for 14 days; type: organism-based; conditions: in vivo, 336 h
[15] = Unbound clearance in dog at 1 mg/kg, iv and 3 mg/kg, po; type: ADME, organism-based, Canis lupus familiaris; conditions: in vivo
[16] = Average plasma concentration in Wistar Han rat at 100 mg/kg, po administered as single dose measured on day 14; type: ADME, organism-based; conditions: in vivo
Rattus norvegicus [17] = test: Toxicity in Wistar Han rat at <= 100 mg/kg/day, po administered for 14 days by macroscopic analysis; type: organism-based; conditions: in vivo, 336 h
[18] = Half life in dog at 1 mg/kg, iv and 3 mg/kg, po; type: ADME, organism-based, Canis lupus familiaris; conditions: in vivo
[19] = Volume of distribution at steady state in dog at 1 mg/kg, iv and 3 mg/kg, po; type: ADME, organism-based, Canis lupus familiaris; conditions: in vivo, read-out: Vdss

With `O=S(=O)(Nc1ccc(C(F)(F)F)nc1)c1ccccc1C(F)(F)F` the Drug metabolism [1] was “Metabolite_Notdetected”, the Activity [2] was “Toxic” and the Drug metabolism [3] was “Metabolite_Detected”. The Activity [4] was “Toxic”, the bioavailability [5] was 104% and the IC50 (Cytochrome P450 2C9) was 1100 nM. For the same compound, the Drug metabolism [6] was “Metabolite_Detected”, the IC50 (Cytochrome P450 2D6) was greater than 30000 nM and the Activity (Rattus norvegicus [7]) was “Non-Toxic”. For the same compound, the inhibition at 3 µM (CYP2C9) was 24%, the clearance [8] was 20.2 mL/day/kg and the Vd [9] was 0.12 L/kg. For the same compound, the efflux ratio (P-gp) was 1.1, the Drug metabolism [10] was “Metabolite_Detected” and the Activity [11] was “Toxic”. For the same compound, the Activity (Rattus norvegicus [12]) was “Non-Toxic” and the Drug metabolism [13] was “Metabolite_Detected”.

In the case of `O=S(=O)(Nc1cncc(C(F)(F)F)c1)c1ccccc1C(F)(F)F`, the Activity (Rattus norvegicus [14]) is reported as “Non-Toxic”, the CL free [15] is reported as 25200 mL/day/kg and the Cave [16] is reported as 807 nM. The Activity (Rattus norvegicus [17]) was “Non-Toxic”, the half-life [18] was 2.4 h and the Vd [19] was 0.18 L/kg.
